Columns and labels:
V79 [1] = experiment: Differential hypoxic cytotoxicity towards chinese hamster cells (V79) using MTT assay under anaerobic conditions; format: functional, cell-based; settings: Cricetulus griseus
V79 [2] = experiment: Differential hypoxic cytotoxicity towards chinese hamster cells (V79) using MTT assay under aerobic conditions; format: functional, cell-based; settings: Cricetulus griseus

Compound | IC50 (V79 [1]) [µM] | IC50 (V79 [2]) [µM]
CCCCCCCCCCCCn1c2nc(=O)[nH]c(=O)c-2cc2ccccc21 | > 1000 | > 1000
CCCCCCCCn1c2nc(=O)n(-c3ccccc3)c(=O)c-2cc2cccc([N+](=O)[O-])c21 | 3.7 | 1.7
CCCCCCCCCCCCn1c2nc(=O)[nH]c(=O)c-2cc2cc([N+](=O)[O-])ccc21 | 22 | 16
CCCCCCCCCCCCn1c2nc(=O)[nH]c(=O)c-2cc2ccc([N+](=O)[O-])cc21 | 190 | 300
CCCCCCCCCCCCn1c2nc(=O)n(C)c(=O)c-2cc2ccccc21 | > 1000 | > 1000
CCCCCCCCn1c2nc(=O)n(-c3ccccc3)c(=O)c-2cc2ccc([N+](=O)[O-])cc21 | 1.2 | 6.1
CCCCCCCCn1c2nc(=O)n(-c3ccccc3)c(=O)c-2cc2c([N+](=O)[O-])cccc21 | 0.56 | 3.6
CCCCCCCCCCCCn1c2nc(=O)n(C)c(=O)c-2cc2cccc([N+](=O)[O-])c21 | > 1000 | > 1000
CCCCCCCCCCCCn1c2nc(=O)n(C)c(=O)c-2cc2ccc([N+](=O)[O-])cc21 | 61 | 130
CCCCCCCCCCCCn1c2nc(=O)[nH]c(=O)c-2cc2c([N+](=O)[O-])cccc21 | 1.1 | 4.3
CCCCCCCCCCCCn1c2nc(=O)[nH]c(=O)c-2cc2cccc([N+](=O)[O-])c21 | 3.6 | 1.9
CCCCCCCCn1c2nc(=O)n(-c3ccccc3)c(=O)c-2cc2cc([N+](=O)[O-])ccc21 | 19 | 27
CCCCCCCCCCCCn1c2nc(=O)n(C)c(=O)c-2cc2c([N+](=O)[O-])cccc21 | 2.9 | 7.2
CCCCCCCCCCCCn1c2nc(=O)n(C)c(=O)c-2cc2cc([N+](=O)[O-])ccc21 | > 1000 | > 1000
CCCCCCCCn1c2nc(=O)n(-c3ccccc3)c(=O)c-2cc2ccccc21 | > 1000 | > 1000
NC(=O)N/N=C/c1ccc([N+](=O)[O-])o1 [NITROFURAZONE] | 270 | 740
